Test results: US20160115540A1, “PRODRUGS AND DRUGS” (Biogen MA Inc., priority 2013, published 2016)
Where a name gives a salt, the structure may show the parent alone.

Test system: blood and tissues
Experiment: Transcriptional profiling, acute (single) dosing, EAE mice: blood and tissues
Type: in vivo
Conditions: for Number of differentially expressed genes identified: Brain / Number of differentially expressed genes identified: Cerebellum / Number of differentially expressed genes identified: Lymph Node / Number of differentially expressed genes identified: Spleen / Number of differentially expressed genes identified: Whole blood / Number of differentially expressed genes identified: Spinal Cord: EAE, Acute Dosing
Source text: EAE induction is generally performed by immunization with brain extracts, CNS proteins (such as myelin basic protein), or peptides from such protein emulsified in an adjuvant such as complete Freund's adjuvant, e.g., as described in Linker et al., Brain. 2011 March 134(Pt3): 678-92. […] FIG. 17 depicts exemplary immunophenotyping panels used to analyze various immune cell populations (e.g., T cells, T regulatory cells, NK cells, B cells, myeloid cells). […] The number of independent mice whose tissues were harvested for transcript profiling studies and whose data passed QC is shown in TABLE 15. Animals were exposed to CO2 and whole blood collected via cardiac puncture. Two 100 μl aliquots of whole blood were collected in 1.5 mL microcentrifuge tubes and snap frozen in liquid nitrogen. Peripheral (liver, spleen, kidney and jejunum) and CNS brain (cerebellum, hippocampus, striatum and cortex) tissues were harvested and snap frozen in liquid nitrogen, with special care taken to collect tissues of similar size and from the same location. All samples were stored at -80° C. until RNA extraction was conducted. For RNA preparation, frozen tissues were placed in 2 mL RNAse-free 96-well blocks with 1.5 mL QIAzol Lysis Reagent (QIAgen) and a 3.2 mm stainless steel bead (BioSpec Products, Bartlesville, Okla.). Tissues were disrupted for four cycles of 45 seconds in a Mini-Beadbeater (Biospec Products). RNA was extracted in chloroform and the aqueous phase was mixed with an equal volume of 70% ethanol. Extracted RNA was applied to RNeasy 96 plates and purified by the spin method according to the manufacturer's protocol (RNeasy 96 Universal Tissue Protocol, QIAgen, Hilden Germany). 50 ul of snap frozen mouse blood was re-suspended in lysis buffer with proteinase K and arrayed into deep-well plates for automated RNA extraction. RNA extractions were completed on […] (Beckman Coulter, Indianapolis, Ind.) using Agencourt RNAdvance Blood kit (Part number A35604) according to the manufacturer's specifications. RNA integrity was assessed using the HT RNA reagent kit (Part number 760410, Caliper Life Sciences, Hopkinton, Mass.) using a LabChip GX (PerkinElmer, Waltham, Mass.). RNA samples with a RQS score of >8.0 were considered high quality for downstream microarray processing. […] Washing and staining of the hybridized arrays were completed as described in the GeneChip Expression analysis technical manual for HT plate arrays using the Genechip® Array Station (Affymetrix, Santa Clara, Calif.) with modifications as described in […] et al. The processed GeneChip® plate arrays were scanned using GeneTitan scanner (Affymetrix, Santa Clara, Calif.). Affymetrix scans were subject to quality control (QC) measures. These tests included a visual inspection of the distribution of raw signal intensities and an assessment of RNA degradation, relative log expression (RLE), and normalized unscaled standard error (NUSE). All sample scans that passed these QC metrics were included in the analysis. […] Nucleic Acids Res 2003; 31:e15; Li C, et al. Genome Biol 2001; 2:[…]0032). […] Stat Appl Genet Mol Biol 2004; 3:Article3). […] Springer Science+Business Media 2005). […] Generally, no distinct sample groupings were apparent from this analysis; however, in the following cohorts, differences in EAE severity across the mice were manifest in global gene expression patterns: An example of this animal grouping is shown in FIG. 33 for the spinal cord from the chronically-dosed 7 h EAE mice. […] Three distinct groups of mice result from unsupervised clustering, and these animal groups correlate with the cumulative EAE score. […] Subsequent analyses for the cohorts listed above only included those animals with the most severe EAE scores; however, for the cohorts 'Spinal Cord, Acute Dosing, 7 h' and 'Spleen, Acute Dosing, 12 h,' there were an insufficient number of mice in the different treatment groups to perform such a sub-analysis. […]

[1] = 100 mpk DMF-vs-90 mpk MMF, 7 h after last dosing
[2] = 100 mpk DMF-vs-90 mpk MMF, 12 h after last dosing
[3] = 100 mpk DMF-vs-Vehicle, 7 h after last dosing
[4] = 100 mpk DMF-vs-Vehicle, 12 h after last dosing
[5] = lymph node, 100DMF-vs-Veh, 12 h
[6] = whole blood, 100DMF-vs-Veh, 7 h

**Q.** How did the “Number of differentially expressed genes identified: Brain” value (from here on “Number of differentially … Brain”) [1] turn out when `COC(=O)/C=C/C(=O)OC` [DMF, dimethyl fumarate] was run?
**A.** 0

**Q.** What about the “Number of differentially expressed genes identified: Cerebellum” value (from here on “Number of differentially … Cerebellum”) [1] of the same compound?
**A.** 0

**Q.** What about the “Number of differentially expressed genes identified: Lymph Node” value (shortened to “Number of differentially … Lymph Node”) [1] of the same compound?
**A.** 0

**Q.** And the “Number of differentially expressed genes identified: Spleen” value [1]?
**A.** 0

**Q.** And the “Number of differentially expressed genes identified: Whole blood” value (“Number of differentially … Whole blood” below) [1]?
**A.** 0

**Q.** What about the “Number of differentially … Brain” value [2] of the same compound?
**A.** 0

**Q.** What about the “Number of differentially … Cerebellum” value [2] of the same compound?
**A.** 0

**Q.** And the “Number of differentially … Lymph Node” value [2]?
**A.** 0

**Q.** And the “Number of differentially expressed genes identified: Spinal Cord” value [2]?
**A.** 0

**Q.** What about the “Number of differentially … Whole blood” value [2] of the same compound?
**A.** 0

**Q.** And the “Number of differentially … Brain” value [3]?
**A.** 0

**Q.** What about the “Number of differentially … Cerebellum” value [3] of the same compound?
**A.** 0

**Q.** And the “Number of differentially … Lymph Node” value [3]?
**A.** 7

**Q.** What about the “Number of differentially expressed genes identified: Spleen” value [3] of the same compound?
**A.** 21

**Q.** And the “Number of differentially … Whole blood” value [3]?
**A.** 3

**Q.** And the “Number of differentially … Brain” value [4]?
**A.** 0

**Q.** And the “Number of differentially … Cerebellum” value [4]?
**A.** 0

**Q.** What about the “Number of differentially … Lymph Node” value [4] of the same compound?
**A.** 2

**Q.** And the “Number of differentially expressed genes identified: Spinal Cord” value [4]?
**A.** 1

**Q.** What about the “Number of differentially … Whole blood” value [4] of the same compound?
**A.** 0

**Q.** What about the differentially expressed genes (cerebellum, 100DMF-vs-90MMF, 7 h) of the same compound?
**A.** None

**Q.** What about the differentially expressed genes (cerebellum, 100DMF-vs-90MMF, 12 h) of the same compound?
**A.** None

**Q.** What about the differentially expressed genes (cerebellum, 100DMF-vs-Veh, 7 h) of the same compound?
**A.** None

**Q.** What about the differentially expressed genes (cerebellum, 100DMF-vs-Veh, 12 h) of the same compound?
**A.** None

**Q.** And the differentially expressed genes (lymph node, 100DMF-vs-90MMF, 7 h)?
**A.** None

**Q.** What about the differentially expressed genes (lymph node, 100DMF-vs-90MMF, 12 h) of the same compound?
**A.** None

**Q.** And the “FC Aox1 (1419435_PM_at)” value (lymph node, 100DMF-vs-Veh, 7 h)?
**A.** 2.16

**Q.** What about the “FC F3 1417408_PM_at” value (lymph node, 100DMF-vs-Veh, 7 h) of the same compound?
**A.** 1.59

**Q.** And the “FC Gclm 1439050_PM_at” value (lymph node, 100DMF-vs-Veh, 7 h)?
**A.** 1.53

**Q.** What about the “FC Nqo1 (1423627_PM_at)” value (lymph node, 100DMF-vs-Veh, 7 h) of the same compound?
**A.** 2.19

**Q.** And the “FC Pir (1429001_PM_at)” value (lymph node, 100DMF-vs-Veh, 7 h)?
**A.** 1.52

**Q.** What about the “FC Srxn1 (1419942_PM_at)” value (lymph node, 100DMF-vs-Veh, 7 h) of the same compound?
**A.** 1.71

**Q.** And the “FC Srxn1 (1426875_PM_s_at)” value (lymph node, 100DMF-vs-Veh, 7 h)?
**A.** 1.68

**Q.** What about the “FC Aox1 (1419435_PM_at)” value [5] of the same compound?
**A.** 1.69

**Q.** And the “FC Nqo1 (1423627_PM_at)” value [5]?
**A.** 1.69

**Q.** And the differentially expressed genes (spinal cord, 100DMF-vs-90MMF, 12 h)?
**A.** None

**Q.** What about the “FC Blvrb (1451386_PM_at)” value (spinal cord, 100DMF-vs-Veh, 12 h) of the same compound?
**A.** 1.84

**Q.** What about the differentially expressed genes (spleen, 100DMF-vs-90MMF, 7 h) of the same compound?
**A.** None

**Q.** What about the “FC 1441413_PM_at” value (spleen, 100DMF-vs-Veh, 7 h) of the same compound?
**A.** 1.52

**Q.** And the “FC 1458902_PM_at” value (spleen, 100DMF-vs-Veh, 7 h)?
**A.** 1.69

**Q.** What about the “FC Aox1 (1419435_PM_at)” value (spleen, 100DMF-vs-Veh, 7 h) of the same compound?
**A.** 1.74

**Q.** And the “FC Cat 1416430_PM_at” value (spleen, 100DMF-vs-Veh, 7 h)?
**A.** 1.63

**Q.** And the “FC Dennd4a 1435975_PM_at” value (spleen, 100DMF-vs-Veh, 7 h)?
**A.** 1.56

**Q.** And the “FC Dnmt31 1425035_PM_s_at” value (spleen, 100DMF-vs-Veh, 7 h)?
**A.** 1.81

**Q.** And the “FC Gclm 1439050_PM_at” value (spleen, 100DMF-vs-Veh, 7 h)?
**A.** 2.02

**Q.** What about the “FC Gsta3 (1423436_PM_at)” value (spleen, 100DMF-vs-Veh, 7 h) of the same compound?
**A.** 1.74

**Q.** What about the “FC Gsta3 (1423437_PM_at)” value (spleen, 100DMF-vs-Veh, 7 h) of the same compound?
**A.** 1.55

**Q.** And the “FC Higd1c /// Mettl7a1 /// Mettl7a2 1434150_PM_a_at” value (spleen, 100DMF-vs-Veh, 7 h)?
**A.** 2.00

**Q.** What about the “FC Il1f9 1425958_PM_at” value (spleen, 100DMF-vs-Veh, 7 h) of the same compound?
**A.** 2.33

**Q.** And the “FC Kif22 1437716_PM_x_at” value (spleen, 100DMF-vs-Veh, 7 h)?
**A.** 1.53

**Q.** What about the “FC LOC677317 /// Me1 1416632_PM_at” value (spleen, 100DMF-vs-Veh, 7 h) of the same compound?
**A.** 1.52

**Q.** What about the “FC Nqo1 (1423627_PM_at)” value (spleen, 100DMF-vs-Veh, 7 h) of the same compound?
**A.** 3.34

**Q.** What about the “FC Pir (1429001_PM_at)” value (spleen, 100DMF-vs-Veh, 7 h) of the same compound?
**A.** 2.99

**Q.** What about the “FC Polh 1447837_PM_x_at” value (spleen, 100DMF-vs-Veh, 7 h) of the same compound?
**A.** 1.51

**Q.** And the “FC Srxn1 (1419942_PM_at)” value (spleen, 100DMF-vs-Veh, 7 h)?
**A.** 2.08

**Q.** And the “FC Srxn1 (1426875_PM_s_at)” value (spleen, 100DMF-vs-Veh, 7 h)?
**A.** 2.08

**Q.** And the “FC Srxn1 (1451680_PM_at)” value (spleen, 100DMF-vs-Veh, 7 h)?
**A.** 1.84

**Q.** And the “FC Tmem41b 1428586_PM_at” value (spleen, 100DMF-vs-Veh, 7 h)?
**A.** 1.61

**Q.** And the “FC Ugt1a1 /// Ugt1a10 /// Ugt1a2 /// Ugt1a5 /// Ugt1a6a /// Ugt1a6b /// Ugt1a7c /// Ugt1a9 (1426261_PM_s_at)” value (spleen, 100DMF-vs-Veh, 7 h)?
**A.** 1.51

**Q.** And the differentially expressed genes (whole blood, 100DMF-vs-Veh, 12 h)?
**A.** None

**Q.** And the differentially expressed genes (whole blood, 100DMF-vs-90MMF, 7 h)?
**A.** None

**Q.** And the differentially expressed genes (whole blood, 100DMF-vs-90MMF, 12 h)?
**A.** None

**Q.** What about the “FC Dtx4 1436545_PM_at” value [6] of the same compound?
**A.** 1.72

**Q.** And the “FC Egln3 1418649_PM_at” value [6]?
**A.** 1.82

**Q.** And the “FC Rnf128 (1449036_PM_at)” value [6]?
**A.** 1.62
